One experiment concerns the target T1, EP2 receptors (Homo sapiens, UniProt P43116).
T1 construct: Immortalized human non-pigmented ciliary epithelial cells (containing EP2 receptors); endogenous in cells; host or cells: immortalized human non-pigmented ciliary epithelial cells
In words: cAMP production (radioimmunoassay) via EP2 receptors in immortalized human non-pigmented ciliary epithelial cells. It counts as cell-based. The protocol: (§1) Immortalized human non-pigmented ciliary epithelial cells (containing EP2 receptors) and Chinese hamster ovary cells (containing EP4 receptors, Milne et al. Human moncytes and cultured Chinese hamster ovary cells express EP4 receptors positively coupled to adenylate cyclase, Br. J. Pharmacology, 113 (supplement):8 (1994)) were stimulated with various prostaglandins for 15-60 min at 23° C. The cAMP produced by receptor activation was determined by a specific radioimmunoassay as previously described (Sharif et al., Pharmacological analysis of mast cell mediator and neurotransmitter receptors coupled to adenylate cyclase and phospholipase C on immunocytochemically-defined human conjunctival epithelial cells, J. Ocular Pharmacology & Therapeutics, 13, 321-336 (1997); Crider et al. Prostaglandin-stimulated adenylyl cyclase activity via a pharmacologically-defined EP2 receptor in human non-pigmented epithelial cells, J. Ocular Pharmacology & Therapeutics 14:293-304 (1998); Crider et al. Use of a semi-automated, robotic radioimmunoassay to measure cAMP generated by activation of DP-, EP2- and IP-prostaglandin receptors in human ocular and other cell-types, Prostaglandins, Leukotrienes & Fatty Acids 59:77-82 (1998), Milne et al. Human moncytes and cultured Chinese hamster ovary cells express EP4 receptors positively coupled to adenylate cyclase, Br. J. Pharmacology, 113 (supplement):8, (1994)).

The next experiment concerns the target T2, EP4 receptors (Cricetulus griseus, UniProt A0A061ILF4).
T2 construct: Chinese hamster ovary cells (containing EP4 receptors); endogenous in cells; host or cells: Chinese hamster ovary (CHO) cells
In words: cAMP production (radioimmunoassay) via EP4 receptors in Chinese hamster ovary cells. It is filed as cell-based. Conditions: stimulated 15-60 min at 23° C; for EC50: read-out: Potency (EC50, nM) at EP4 Receptors in Chinese Hamster Ovary Cells. The protocol: as §1

The mark [1] stands for this setting: cAMP production, stimulated 15-60 min at 23° C.

Structures are written as SMILES.

Experimental findings from patent US6545045B1, “Prostaglandin E agonists for treatment of glaucoma” (Alcon Manufacturing, Ltd., priority 1998, dated 2003) are described below.

T2 sequence (A0A061ILF4 1-488): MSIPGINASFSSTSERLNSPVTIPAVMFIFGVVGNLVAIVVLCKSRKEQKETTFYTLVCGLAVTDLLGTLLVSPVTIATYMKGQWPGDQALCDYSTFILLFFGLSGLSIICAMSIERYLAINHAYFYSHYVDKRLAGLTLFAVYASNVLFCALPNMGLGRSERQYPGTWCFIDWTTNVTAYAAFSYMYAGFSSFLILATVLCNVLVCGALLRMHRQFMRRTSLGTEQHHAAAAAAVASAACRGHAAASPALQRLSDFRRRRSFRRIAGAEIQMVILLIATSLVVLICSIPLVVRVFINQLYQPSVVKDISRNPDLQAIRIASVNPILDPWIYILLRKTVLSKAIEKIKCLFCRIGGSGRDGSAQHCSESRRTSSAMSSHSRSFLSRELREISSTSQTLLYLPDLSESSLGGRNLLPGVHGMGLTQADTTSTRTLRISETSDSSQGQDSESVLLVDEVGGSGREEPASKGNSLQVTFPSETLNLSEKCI
T1 sequence (P43116 whole entry): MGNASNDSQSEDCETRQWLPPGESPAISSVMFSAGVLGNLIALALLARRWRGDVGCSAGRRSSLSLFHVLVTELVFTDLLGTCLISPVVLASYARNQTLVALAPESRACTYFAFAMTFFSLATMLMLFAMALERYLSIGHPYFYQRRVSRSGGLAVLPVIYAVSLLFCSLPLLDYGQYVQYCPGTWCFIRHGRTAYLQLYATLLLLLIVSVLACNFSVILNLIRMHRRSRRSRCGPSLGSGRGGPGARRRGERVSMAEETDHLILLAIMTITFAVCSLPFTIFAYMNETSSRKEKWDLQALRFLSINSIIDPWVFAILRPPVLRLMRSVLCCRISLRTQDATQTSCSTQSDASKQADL

With `O=C(O)CCC/C=C\C[C@@H]1[C@@H](/C=C/[C@@H](O)COc2cccc(C(F)(F)F)c2)[C@H](O)C[C@@H]1O` (racemic) [Fluprostenol], the “Potency (EC50, nM) at EP2 Receptors in Immortalized Human Non-pigmented Ciliary Epithelial Cells” value is “Inactive” on EP2 receptors (setting [1]) and “inactive” at EP2 receptors (cAMP production, stimulated 15-60 min at 23° C, listed as fluprostenol). Besides, the “Potency (EC50, nM) at EP4 Receptors in Chinese Hamster Ovary Cells” value at EP4 receptors is “Inactive”; on EP4 receptors (listed as fluprostenol) it was “inactive”.
In the case of `CCCCC(C)(C)[C@H](O)/C=C/[C@H]1CCC(=O)[C@@H]1C/C=C\CCCC(=O)O` [11-deoxy-16,16-dimethyl-PGE2, 11-deoxy-16,16-dimethyl PGE2], the “efficacy at EP4 Receptors in Chinese Hamster Ovary Cells” value (from here on “efficacy at EP4 Receptors”) on EP4 receptors was 99%.
Turning to `CCCCC[C@H](O)/C=C/[C@H]1CCC(=O)[C@@H]1CCCCCCC(=O)O` [11-deoxy-PGE1], the EC50 at EP2 receptors (cAMP production, stimulated 15-60 min at 23° C, read-out: Potency (EC50, nM) at EP2 Receptors in Immortalized Human Non-pigmented Ciliary Epithelial Cells) turned out to be 500 nM. In addition, at EP4 receptors, the “efficacy at EP4 Receptors” value worked out at 86% and the EC50 was 38 nM.
Consider `CCCCC(C)(C)[C@H](O)/C=C/[C@H]1[C@H](O)CC(=O)[C@@H]1C/C=C\CCCC(=O)O` [16,16-dimethyl-PGE2, 16,16-dimethyl PGE2], for which, at EP4 receptors, the “efficacy at EP4 Receptors” value was found to be 100%.
Consider `CCCC1([C@H](O)C/C=C/[C@H]2[C@H](O)CC(=O)[C@@H]2CCCCCCC(=O)OC)CCC1` [Butaprost], for which, at EP2 receptors (EP2 versus EP4, from EC50 values of Table 1), the “selectivity between EP2 and EP4 receptors (relative agonist potency)” value is given as “more EP2-selective”.
Consider `O=C(O)CCC/C=C\CC1C(O)CC(O)C1/C=C/C(O)COc1cccc(Cl)c1` (stereo not shown) [Cloprostenol], for which the “Potency (EC50, nM) at EP2 Receptors in Immortalized Human Non-pigmented Ciliary Epithelial Cells” value was “Inactive” at EP2 receptors (setting [1]) and “inactive” on EP2 receptors (cAMP production, stimulated 15-60 min at 23° C, listed as cloprostenol). The figures for the “Potency (EC50, nM) at EP4 Receptors in Chinese Hamster Ovary Cells” value on EP4 receptors and on EP4 receptors (listed as cloprostenol) were “Inactive” and “inactive”, respectively.
On to `CCCCC[C@H](O)/C=C/[C@H]1[C@H](O)CC(=O)[C@@H]1C/C=C\CCCC(=O)O` [PGE2], for which, at EP4 receptors, the “efficacy at EP4 Receptors” value is 100% and the EC50 turned out to be 35 nM.
